{"source": "patent US20130189185A1", "about": "“Boron-Based Dual Imaging Probes, Compositions and Methods for Rapid Aqueous F-18 Labeling, and Imaging Methods Using Same” (UNIVERSITY OF SOUTHERN CALIFORNIA, priority 2011, published 2013)", "key": {"[1]": {"assay": "In vivo microPET imaging of normal nude mice", "details": "judged from imaging results", "description": "The stability of the resulting ^18F—B compound is critical as free [^18F]-fluoride ions could bind to the bones giving rise to unwanted and interfering background signals.^14 The stability of compound [^18F]-[2-F]^+ was first studied in PBS buffer at pH 7.5 over a period of several hours. […] In order to validate the approach for in vivo PET imaging, [^18F]-[2-F]^+ (prepared via the aqueous route) was injected into normal nude mice that were imaged using a microPET scanner 1 h, 2 h, and 4 h post injection. […] Thus, although probe compound [^18F]-[2-F]^+ lacks any specific targeting functionalities, its accumulation in these organs constitutes a normal phenomenon, in line with its hydrophobic and cationic nature.\n(§1) Obvious bone uptake even at 3 h post injection was not observed, which is consistent with the reported high stability of BODIPY dyes. Next, the dual modality potential of the probe was confirmed. The animal was euthanized and liver, kidneys and muscle were harvested for ex vivo PET/fluorescence imaging. […] We also sectioned the kidney and observed the BODIPY fluorescent signal under microscope.\nThe nude mice were imaged using a microPET R4 rodent model scanner (Concorde Microsystems, Knoxyille, Tenn.) in the prone position. The mice were injected with 50-80 μCi of [^18F]-[2-F]^+ via the tail vein. […]"}, "[2]": {"assay": "Ex vivo fluorescence and microPET imaging of dissected organs", "format": "in vivo, nude mouse", "details": "organs harvested after microPET scan 4 h post injection", "description": "The dual modality operation of the probe was confirmed. To this end, the animal was euthanized and selected organs harvested for ex vivo fluorescence and microPET imaging (FIG. 4). The fluorescence images were obtained by irradiation of the organs at λ=500 nm. This wavelength was chosen because it falls within the absorption band of [2-F]^+ (see Supporting Information). The fluorescence image was reconstructed based on the emission intensity measured at λ=580±20 nm, a wavelength which is within the fluorescence band of [2-F]^+ (see Supporting Information).\nas §1\nTo cross-evaluate the dual modality tracer ^18F-2-F, ex vivo fluorescence imaging was performed using a Lumina II small-animal imaging system (Xenogen, Alameda, Calif.). After the microPET imaging was done, the nude mouse was sacrificed. […] Fluorescent images were acquired and analyzed using Living Image 2.5 software (Xenogen). The fluorescence images were acquired using a 2-s exposure time (f-stop 4)."}}, "data": [{"smiles": "CC1=CC(C)=[N+]2C1=C(c1ccc([N+](C)(C)C)cc1)c1c(C)cc(C)n1[B-]2(F)c1ccccc1", "note": "(stereo not drawn) [[2-F]^+]", "values": [{"measurement": "stability in vivo", "setting": "[1]", "result": "stable in vivo"}, {"measurement": "uptake in heart, representative bones and muscles, ex vivo", "setting": "[2]", "result": "minimal uptake"}, {"measurement": "accumulation of the probe in organs, ex vivo microPET and fluorescence", "setting": "[2]; excitation 500 nm, emission 580±20 nm", "result": "accumulation of the probe in the liver and kidneys"}]}]}
